# Assay results published in US7932251B2, “6-phenyl-1H-imidazo[4,5-c]pyridine-4-carbonitrile derivatives” (priority 2007, dated 2011).
# pIC50: −log10 of the molar value.
# Target: recombinant human Cathepsin S (Homo sapiens, UniProt P25774)
# Test: Cathepsin S assay: inhibition of recombinant human cathepsin S, fluorogenic substrate Z-Val-Val-Arg-AMC
# Assay type: biochemical
# Method: Cathepsin S Assay Procedure
# To a 384 well microtitre plate is added 10 μl of a 100 μM solution of test compound in assay buffer (110 mM sodium acetate pH5.5, 5 mM EDTA, 5 mM dithiothreitol) with 10% dimethylsulfoxide (DMSO), plus 20 μl of 250 μM solution of the substrate
# Z-Val-Val-Arg-AMC (7-amido-coumarine derivative of the tripeptide N-benzyloxycarbonyl-Val-Val-Arg-OH) in assay buffer and 45 μl of assay buffer. 25 μl of a 2 mg/l solution of activated recombinant human cathepsin S, in assay buffer, is then added to the well, yielding a final inhibitor concentration of 10 μM. Enzyme activity is determined by measuring the fluorescence of the liberated aminomethylcoumarin at […] using 390 nm excitation, at 20 minutes. Percentage enzyme activity is calculated by comparison of this activity to that of a solution containing no inhibitor.
# recombinant human Cathepsin S, sequence (P25774 115-331): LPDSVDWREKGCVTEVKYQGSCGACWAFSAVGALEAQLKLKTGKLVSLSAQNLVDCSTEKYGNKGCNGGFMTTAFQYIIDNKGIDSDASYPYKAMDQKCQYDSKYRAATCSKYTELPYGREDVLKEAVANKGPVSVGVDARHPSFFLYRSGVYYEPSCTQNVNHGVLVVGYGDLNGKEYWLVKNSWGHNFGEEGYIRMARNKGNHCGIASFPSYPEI
row,SMILES,pIC50
1,Cn1cnc2c(C#N)nc(-c3ccc(OCCCO)c(C(F)(F)F)c3)cc21 [Example 1],> 7.00
2,"CN(C)CCCOc1ccc(-c2cc3c(ncn3C)c(C#N)n2)cc1C(F)(F)F [Example 2a, 6-[4-(3-Dimethylaminopropoxy)-3-(trifluoromethyl)-phenyl]-1-methyl-1H-imidazo[4,5-g]pyridine-4-carbonitrile]",> 7.00
3,"Cn1cnc2c(C#N)nc(-c3ccc(OCCCN4CCCC4)c(C(F)(F)F)c3)cc21 [Example 2c, 1-Methyl-6-[4-(3-pyrrolidin-1-ylpropoxy)-3-(trifluoromethyl)-phenyl]-1H-imidazo[4,5-c]pyridine-4-carbonitrile]",> 7.00
4,"CCN(CC)CCCOc1ccc(-c2cc3c(ncn3C)c(C#N)n2)cc1C(F)(F)F [Example 2u, 6-[4-(3-N,N-Diethylamino-propoxy)-3-(trifluoromethyl)-phenyl]-1-methyl-1H-imidazo[4,5-d]pyridine-4-carbonitrile]",> 7.00
5,"CN1CCN(CCCOc2ccc(-c3cc4c(ncn4C)c(C#N)n3)cc2C(F)(F)F)CC1(C)C [Example 4a, 1-Methyl-6-{3-(trifluoromethyl)-4-[3-(3,3,4-trimethylpiperazin-1-yl)-propoxy]-phenyl}-1H-imidazo[4,5-c]pyridine-4-carbonitrile]",> 7.00
6,"Cn1cnc2c(C#N)nc(-c3ccc(OCCCN4CCNC(C)(C)C4)c(C(F)(F)F)c3)cc21 [Example 4b, 6-{4-[3-(3,3-Dimethylpiperazin-1-yl)-propoxy]-3-(trifluoromethyl)-phenyl}-1-methyl-1H-imidazo[4,5-c]pyridine-4-carbonitrile]",> 7.00
7,"CN1CCN(CCCOc2ccc(-c3cc4c(ncn4C)c(C#N)n3)cc2C(F)(F)F)CC1 [Example 4e, 1-Methyl-6-{4-[3-(4-methylpiperazin-1-yl)-propoxy]-3-(trifluoromethyl)-phenyl}-1H-imidazo[4,5-c]pyridine-4-carbonitrile]",> 7.00
8,"CCN1CCN(CCCOc2ccc(-c3cc4c(ncn4C)c(C#N)n3)cc2C(F)(F)F)CC1 [Example 4f, 6-{4-[3-(4-Ethylpiperazin-1-yl)-prooxy]-3-(trifluoromethyl)-phenyl}-1-methyl-1H-imidazo[4,5-c]pyridine-4-carbonitrile]",> 7.00
9,"CNC(=O)C1CCN(CCCOc2ccc(-c3cc4c(ncn4C)c(C#N)n3)cc2C(F)(F)F)CC1 [Example 5a, 1-Methyl-6-(4-{3-[4-(N-methylaminocarbonyl)-piperidin-1-yl]-propoxy}-3-(trifluoromethyl)-phenyl)-1H-imidazo[4,5-c]pyridine-4-carbonitrile]",> 7.00
10,"CCc1nccn1CCCOc1ccc(-c2cc3c(ncn3C)c(C#N)n2)cc1C(F)(F)F [Example 7b, 6-{4-[3-(2-Ethyl-imidazol-1-yl)-propoxy]-3-(trifluoromethyl)-phenyl}-1-methyl-1H-imidazo[4,5-c]pyridine-4-carbonitrile]",> 7.00
11,"C[C@@H]1CN(CCOc2ccc(-c3cc4c(ncn4C)c(C#N)n3)cc2C(F)(F)F)C[C@H](C)N1 [Example 9d, 6-{4-[2-(cis-3,5-dimethyl-piperazin-1-yl)-ethoxy]3-(trifluoromethyl)-phenyl}-1-methyl-1H-imidazo[4,5-c]pyridine-4-carbonitrile]",> 7.00
12,"CN1CCC2(CC1)NC(=O)N(CCOc1ccc(-c3cc4c(ncn4C)c(C#N)n3)cc1C(F)(F)F)C2=O [Example 11, 1-Methyl-6-{4-[2-(8-methyl-2,4-dioxo-1,3,8-triaza-spiro[4.5]dec-3-yl)-ethoxy]-3-(trifluoromethyl)-phenyl}-1H-imidazo[4,5-c]pyridine-4-carbonitrile]",> 7.00
13,"Cn1cnc2c(C#N)nc(-c3ccc(OCCN4C(=O)NC5(CCNCC5)C4=O)c(C(F)(F)F)c3)cc21 [Example 12, 6-(4-[2-(2,4-Dioxo-1,3,8-triaza-spiro[4.5]dec-3-yl)-ethoxy]-3-(trifluoromethyl)-phenyl]-1-methyl-1H-imidazo[4,5-c]pyridine-4-carbonitrile]",> 7.00
14,"Cn1cnc2c(C#N)nc(-c3ccc(OCc4ccccn4)c(C(F)(F)F)c3)cc21 [Example 13c, 1-Methyl-6-[4-(pyridin-2-yl-methoxy)-3-(trifluoromethyl)-phenyl]-1H-imidazo[4,5-c]pyridine-4-carbonitrile]",> 7.00
15,CCN1CCN(CCCOc2ccc(-c3cc4[nH]cnc4c(C#N)n3)cc2C(F)(F)F)CC1 [Example 20f],> 7.00
